{
  "source": "patent US9487519B2",
  "about": "“5,6-Dialkyl-7-aminotriazolopyrimidines, their preparation and their use for controlling harmful fungi, and compositions comprising these compounds” (BASF SE, priority 2004, dated 2016)",
  "key": {"[1]": {"tested_on": "Plasmopara viticola", "assay": "Activity against Peronospora of grapevines caused by Plasmopara viticola (Use Example 1)", "type": "in vivo", "conditions": "250 ppm, potted vines sprayed to runoff, inoculated next day; untreated plants 95% infected", "protocol": "The active compounds were prepared as a stock solution comprising 25 mg of active compound which was made up to 10 ml using a mixture of acetone and/or DMSO and the emulsifier Uniperol® EL (wetting agent having emulsifying and dispersing agent based on ethoxylated alkylphenols) in a ratio by volume of solvent/emulsifier of 99/1. The mixture was then made up to 100 ml with water. This stock solution was, using the solvent/emulsifier/water mixture described, diluted to the active compound concentration stated below.\nLeaves of potted vines were sprayed to runoff point with an aqueous suspension having the concentration of active compound stated below. The next day, the undersides of the leaves were inoculated with an aqueous sporangia suspension of Plasmopara viticola. The vines were then initially placed in a water-vapor-saturated chamber at 24° C. for 48 hours and then in a greenhouse at temperatures between 20° C. and 30° C. for 5 days. After this time, the plants were once more placed in a humid chamber for 16 hours to promote the eruption of sporangiophores. The extent of the development of the infection on the undersides of the leaves was then determined visually."}, "[2]": {"tested_on": "Phytophthora infestans", "type": "in vivo", "conditions": "250 ppm, potted tomato plants sprayed to runoff, infected next day, assessed after 6 days; untreated plants 100% infected"}},
  "data": [
    {"molecule": "CCCCCCCCc1c(CC)nc2ncnn2c1N", "note": "[I-2, 7-amino-5-ethyl-6-octyl[1,2,4]triazolo[1,5-a]pyrimidine]", "values": [
      {"measurement": "infection on the undersides of the leaves, determined visually", "setting": "[1]", "value": "no infection"},
      {"measurement": "infection (late blight), determined visually", "setting": "[2]", "value": "no infection"}
    ]}
  ]
}
